Measured values from ChEMBL document CHEMBL3046591, “Design and synthesis of some azole derivatives as potential antimicrobial agents” (2012).
Activity calls are given as the source filed them. The rule behind the calls is not given here.

Legend:
Assay type in all cases: functional
[1] = test system: Staphylococcus aureus; assay: Antibacterial activity against Staphylococcus aureus ATCC 25923 after 18 hr by agar well diffusion method
[2] = test system: Enterococcus faecalis; assay: Antibacterial activity against Enterococcus faecalis ATCC 29212 after 18 hr by agar well diffusion method
[3] = test system: Klebsiella pneumoniae; assay: Antibacterial activity against Klebsiella pneumoniae ATCC 13883 after 18 hr by agar well diffusion method
[4] = test system: Escherichia coli; assay: Antibacterial activity against Escherichia coli ATCC 25922 after 18 hr by agar well diffusion method
[5] = test system: Candida albicans; assay: Antifungal activity against Candida albicans ATCC 60193 after 18 hr by agar well diffusion method
[6] = test system: Bacillus cereus; assay: Antibacterial activity against Bacillus cereus 702 Roma after 18 hr by agar well diffusion method
[7] = test system: Candida tropicalis; assay: Antifungal activity against Candida tropicalis ATCC 13803 after 18 hr by agar well diffusion method
[8] = test system: Listeria monocytogenes; assay: Antibacterial activity against Listeria monocytogenes ATCC 43251 after 18 hr by agar well diffusion method
[9] = test system: Mycolicibacterium smegmatis; assay: Antibacterial activity against Mycobacterium smegmatis ATCC 607 after 18 hr by agar well diffusion method
[10] = test system: Klebsiella aerogenes; assay: Antibacterial activity against Enterobacter aerogenes ATCC 13048 after 18 hr by agar well diffusion method
[11] = test system: Yersinia pseudotuberculosis; assay: Antibacterial activity against Yersinia pseudotuberculosis ATCC 911 after 18 hr by agar well diffusion method
[12] = test system: Bacillus cereus; assay: Antibacterial activity against Bacillus cereus 702 Roma at 10 mg after 18 hr by agar well diffusion method; settings: read-out: IZ
[13] = test system: Yersinia pseudotuberculosis; assay: Antibacterial activity against Yersinia pseudotuberculosis ATCC 911 at 10 mg after 18 hr by agar well diffusion method; settings: ATCC 911, 18 h, read-out: IZ
[14] = test system: Staphylococcus aureus; assay: Antibacterial activity against Staphylococcus aureus ATCC 25923 at 10 mg after 18 hr by agar well diffusion method; settings: ATCC 25923, 18 h, read-out: IZ
[15] = test system: Enterococcus faecalis; assay: Antibacterial activity against Enterococcus faecalis ATCC 29212 at 10 mg after 18 hr by agar well diffusion method; settings: ATCC 29212, 18 h, read-out: IZ
[16] = test system: Klebsiella pneumoniae; assay: Antibacterial activity against Klebsiella pneumoniae ATCC 13883 at 10 mg after 18 hr by agar well diffusion method; settings: ATCC 13883, 18 h, read-out: IZ
[17] = test system: Listeria monocytogenes; assay: Antibacterial activity against Listeria monocytogenes ATCC 43251 at 10 mg after 18 hr by agar well diffusion method; settings: ATCC 43251, 18 h, read-out: IZ
[18] = test system: Klebsiella aerogenes; assay: Antibacterial activity against Enterobacter aerogenes ATCC 13048 at 10 mg after 18 hr by agar well diffusion method; settings: ATCC 13048, 18 h, read-out: IZ
[19] = test system: Escherichia coli; assay: Antibacterial activity against Escherichia coli ATCC 25922 at 10 mg after 18 hr by agar well diffusion method; settings: ATCC 25922, 18 h, read-out: IZ
[20] = test system: Candida tropicalis; assay: Antifungal activity against Candida tropicalis ATCC 13803 at 5 mg after 18 hr by agar well diffusion method; settings: ATCC 13803, 18 h, read-out: IZ
[21] = test system: Candida albicans; assay: Antifungal activity against Candida albicans ATCC 60193 at 5 mg after 18 hr by agar well diffusion method; settings: ATCC 60193, 18 h, read-out: IZ

SMILES: Cc1nn(Cc2nnc(S)n2-c2ccccc2)c(=O)n1Cc1ccco1
- inhibition zone (IZ) [1]: inactive
- inhibition zone (IZ) [2]: inactive
- inhibition zone (IZ) [3]: 10 mm
- inhibition zone (IZ) [4]: 6 mm
- inhibition zone (IZ) [5]: inactive
- inhibition zone (IZ) [6]: inactive
- inhibition zone (IZ) [7]: inactive
- inhibition zone (IZ) [8]: inactive
- inhibition zone (IZ) [9]: inactive
- inhibition zone (IZ) [10]: 6 mm
- inhibition zone (IZ) [11]: 10 mm

SMILES: O=c1[nH]nc(Cc2ccccc2)n1Cc1ccco1
- inhibition zone (IZ) [1]: 20 mm
- inhibition zone (IZ) [2]: 10 mm
- inhibition zone (IZ) [3]: 10 mm
- inhibition zone (IZ) [4]: inactive
- inhibition zone (IZ) [5]: inactive
- inhibition zone (IZ) [6]: 8 mm
- inhibition zone (IZ) [7]: inactive
- inhibition zone (IZ) [8]: 8 mm
- inhibition zone (IZ) [9]: 10 mm
- inhibition zone (IZ) [10]: 10 mm
- inhibition zone (IZ) [11]: inactive

SMILES: CCCS(=O)(=O)n1nc(Cc2ccccc2)n(Cc2ccco2)c1=O
- inhibition zone (IZ) [1]: 15 mm
- inhibition zone (IZ) [2]: 8 mm
- inhibition zone (IZ) [3]: 10 mm
- inhibition zone (IZ) [4]: 8 mm
- inhibition zone (IZ) [5]: inactive
- inhibition zone (IZ) [6]: inactive
- inhibition zone (IZ) [7]: inactive
- inhibition zone (IZ) [8]: inactive
- inhibition zone (IZ) [9]: 15 mm
- inhibition zone (IZ) [10]: 8 mm
- inhibition zone (IZ) [11]: 10 mm

SMILES: Cc1nn(S(=O)(=O)c2ccccc2)c(=O)n1Cc1ccco1
- inhibition zone (IZ) [1]: 35 mm
- inhibition zone (IZ) [2]: 25 mm
- inhibition zone (IZ) [3]: 20 mm
- inhibition zone (IZ) [4]: 20 mm
- inhibition zone (IZ) [5]: inactive
- inhibition zone (IZ) [6]: 15 mm
- inhibition zone (IZ) [7]: inactive
- inhibition zone (IZ) [8]: 20 mm
- inhibition zone (IZ) [9]: 20 mm
- inhibition zone (IZ) [10]: 15 mm
- inhibition zone (IZ) [11]: 12 mm

SMILES: Cc1n[nH]c(=O)n1CC1CCCO1 (centres undefined)
- inhibition zone (IZ) [1]: 20 mm
- inhibition zone (IZ) [2]: 10 mm
- inhibition zone (IZ) [3]: 8 mm
- inhibition zone (IZ) [4]: inactive
- inhibition zone (IZ) [5]: inactive
- inhibition zone (IZ) [6]: 15 mm
- inhibition zone (IZ) [7]: inactive
- inhibition zone (IZ) [8]: 7 mm
- inhibition zone (IZ) [9]: 15 mm
- inhibition zone (IZ) [10]: 8 mm
- inhibition zone (IZ) [11]: inactive

SMILES: CCOC(=O)Cn1nc(C)n(Cc2ccco2)c1=O
- inhibition zone (IZ) [1]: 8 mm
- inhibition zone (IZ) [2]: inactive
- inhibition zone (IZ) [3]: 10 mm
- inhibition zone (IZ) [4]: inactive
- inhibition zone (IZ) [5]: 9 mm
- inhibition zone (IZ) [6]: 6 mm
- inhibition zone (IZ) [7]: 7 mm
- inhibition zone (IZ) [8]: 8 mm
- inhibition zone (IZ) [9]: 15 mm
- inhibition zone (IZ) [10]: 10 mm
- inhibition zone (IZ) [11]: inactive

SMILES: O=c1n(S(=O)(=O)c2ccc(Br)cc2)nc(Cc2ccccc2)n1Cc1ccco1
- inhibition zone (IZ) [1]: 10 mm
- inhibition zone (IZ) [2]: 8 mm
- inhibition zone (IZ) [3]: 15 mm
- inhibition zone (IZ) [4]: 10 mm
- inhibition zone (IZ) [5]: inactive
- inhibition zone (IZ) [6]: inactive
- inhibition zone (IZ) [7]: inactive
- inhibition zone (IZ) [8]: inactive
- inhibition zone (IZ) [9]: 10 mm
- inhibition zone (IZ) [10]: 8 mm
- inhibition zone (IZ) [11]: 8 mm

SMILES: O=c1n(S(=O)(=O)c2ccc(Cl)cc2)nc(Cc2ccccc2)n1Cc1ccco1
- inhibition zone (IZ) [1]: 15 mm
- inhibition zone (IZ) [2]: 10 mm
- inhibition zone (IZ) [3]: 10 mm
- inhibition zone (IZ) [4]: 6 mm
- inhibition zone (IZ) [5]: inactive
- inhibition zone (IZ) [6]: inactive
- inhibition zone (IZ) [7]: inactive
- inhibition zone (IZ) [8]: inactive
- inhibition zone (IZ) [9]: 10 mm
- inhibition zone (IZ) [10]: 8 mm
- inhibition zone (IZ) [11]: 8 mm

SMILES: Cc1n[nH]c(=O)n1Cc1ccco1
- inhibition zone (IZ) [1]: 20 mm
- inhibition zone (IZ) [2]: inactive
- inhibition zone (IZ) [3]: 10 mm
- inhibition zone (IZ) [4]: inactive
- inhibition zone (IZ) [5]: inactive
- inhibition zone (IZ) [6]: 8 mm
- inhibition zone (IZ) [7]: inactive
- inhibition zone (IZ) [8]: 6 mm
- inhibition zone (IZ) [9]: 10 mm
- inhibition zone (IZ) [10]: 10 mm
- inhibition zone (IZ) [11]: inactive

SMILES: Cc1nn(Cc2n[nH]c(=O)n2Cc2ccccc2)c(=O)n1Cc1ccco1
- inhibition zone (IZ) [1]: inactive
- inhibition zone (IZ) [2]: inactive
- inhibition zone (IZ) [3]: 10 mm
- inhibition zone (IZ) [4]: 8 mm
- inhibition zone (IZ) [5]: inactive
- inhibition zone (IZ) [6]: 6 mm
- inhibition zone (IZ) [7]: inactive
- inhibition zone (IZ) [8]: inactive
- inhibition zone (IZ) [9]: inactive
- inhibition zone (IZ) [10]: 6 mm
- inhibition zone (IZ) [11]: 10 mm

SMILES: Cc1nn(S(=O)(=O)c2ccc([N+](=O)[O-])cc2)c(=O)n1Cc1ccco1
- inhibition zone (IZ) [1]: 15 mm
- inhibition zone (IZ) [2]: 6 mm
- inhibition zone (IZ) [3]: 20 mm
- inhibition zone (IZ) [4]: 15 mm
- inhibition zone (IZ) [5]: inactive
- inhibition zone (IZ) [6]: 15 mm
- inhibition zone (IZ) [7]: inactive
- inhibition zone (IZ) [8]: inactive
- inhibition zone (IZ) [9]: 40 mm
- inhibition zone (IZ) [10]: 15 mm
- inhibition zone (IZ) [11]: 12 mm

SMILES: CN[C@@H]1[C@H](O[C@H]2[C@H](O[C@H]3[C@H](O)[C@@H](O)[C@H](N=C(N)N)[C@@H](O)[C@@H]3N=C(N)N)O[C@@H](C)[C@]2(O)C=O)O[C@@H](CO)[C@H](O)[C@H]1O [STREPTOMYCIN]
- inhibition zone (IZ) [9]: 35 mm

SMILES: CC1(C)S[C@@H]2[C@H](NC(=O)[C@H](N)c3ccccc3)C(=O)N2[C@H]1C(=O)O [AMPICILLIN]
- inhibition zone (IZ) [5]: inactive
- zone of inhibition at 10000 µg/disc [12]: 15 mm
- zone of inhibition at 10000 µg/disc [13]: > 18 mm
- zone of inhibition at 10000 µg/disc [14]: 35 mm
- zone of inhibition at 10000 µg/disc [15]: 10 mm
- zone of inhibition at 10000 µg/disc [16]: 18 mm
- inhibition zone (IZ) [7]: inactive
- zone of inhibition at 10000 µg/disc [17]: 10 mm
- zone of inhibition at 10000 µg/disc [18]: 10 mm
- zone of inhibition at 10000 µg/disc [19]: 10 mm

SMILES: OC(Cn1cncn1)(Cn1cncn1)c1ccc(F)cc1F [FLUCONAZOLE]
- zone of inhibition at 5000 µg/disc [20]: 25 mm
- zone of inhibition at 5000 µg/disc [21]: 25 mm
